In patent US20240248100A1, “SEPTAPEPTIDES ASSOCIATED WITH NEURODEGENERACY” (SEPTA THERAPEUTICS, INC., priority 2018, published 2024):
“Also recorded” adds a separate entry of the source.

Tests used:
[1] = tested on: RG cells; details: 1 mM dB-cAMP; cited from earlier work
[2] = tested on: RG progenitor cells; assay: Maturation (mitogenic-like) activity on rat glial (RG) progenitor cell monolayers, scored visually; assay type: cell-based; details: 72 hours, above untreated baseline
Method: Since no appropriate CNS-derived cells are available for the detection of Ca^+2 mobilization, a continuous cell line of glial stem cells was established in culture in order to detect mitogenic-like effects scored upon visual examination. Glial cells from normal brain following kainic acid-induced lesions were established in continuous cell culture as previously described by Singh VK and Van Alstyne D., Brain Res (1978) 155:418-421.) Briefly, 1 ul of a solution of kainic acid monohydrate (Sigma), containing 5 nmole kainic acid in 0.9% saline, was injected into rat striatum under anaesthesia. Rats were anaesthetized and decapitated 5 days following injection and the brains were harvested immediately and placed in a sterile glass culture dish. The striatum from the injection site was dissected, placed in MEM (Gibco) containing 0.2% glucose, 10% fetal calf serum, 5 units/ml penicillin, 5 ug/ml streptomycin and then further minced using a sterile scalpel. The culture dish was then incubated at 37° C. in a humidified atmosphere containing 5% CO2. Each day for the first 3-4 days, the unattached tissue fragments were removed, washed once in fresh medium and returned to the culture dish until a complete monolayer was formed. The resulting monolayers were then subcultured every 5-6 days after trypsinization. The monolayers were treated with 0.25% trypsin (Gibco) for 5 minutes at 22° C. The cells were collected by low speed centrifugation, washed twice with complete growth medium, counted and replated in glass culture dishes. Once the cell line was established in glass dishes, the cells were then adapted and transferred to plastic culture dishes.
The mitogenic effect of diBcAMP on RG monolayers is shown in FIGS. 7A (untreated) and 7B (treated) cells after 24 hours. […] Mature cells were characterized using ThermoFisher Scientific CD11b and GFAP (Glial Fibrillary Acidic Protein) monoclonal antibodies AlexaFluor commonly used to detect microglial- and astrocyte-specific markers respectively. (Tran, E., et al. J. Neuroimmunology 74 (1997) 121-129). FIGS. 8A-8D show identical cells under brightfield illumination, with positive staining for microglial and astrocyte markers (CD11b and GFAP markers respectively. The identification of the majority of these cells as microglia, a subset of astrocytes, is significant since an overabundance of microglia has been associated with the development of AD (Weizmann Institute of Science, “The brain's rejuvenating cells,” Science Daily, 9 June, 2017:sciencedaily.com/release/2017/06/170609135903).
Peptides derived from amyloid beta and synthesized by Kinexus Inc. (Vancouver, Canada) were tested for their effects on RG cell cultures, according to the method of Yankner BR, et al., Science (1990) 250:279-282. Since septapeptides may be too small or unstable to form avid bonds with cell surface receptors, the 7 mer was bracketed within a slightly longer 10-mer construct, in order to maximize stability during the incubation procedure. A randomized sequence was used as a negative control.
These peptides were dissolved in DMSO (dimethyl sulfoxide) to maintain stability. This solvent slightly altered the shape of some cells at lower dilutions of peptide, giving a high background. Therefore, to avoid any interference with the results, RG cells were incubated in the presence of peptide concentrations ranging from […] to 10^-7 M for 72 hours. Positive cells were counted and data are presented as the number greater than the baseline number of maximal mature glia in untreated control cultures achieved by day 3, taken to be zero. Results are shown in Table 3 and photos of transformed cells are contained in FIGS. 9A and 9B.

[3] = tested on: THP-1 cells; assay: Ca+2 mobilization (Indo-1AM fluorescence) and desensitization in THP-1 monocytic cells; assay type: cell-based; details: for Ca^+2 flux: peptide alone; for DESENSITIZATION: desensitization of subsequent Ca+2 mobilization by MCP-1 or heterologous septapeptide
Description: Alternately, chemokine activity can be measured more quantitatively using Ca^+2 mobilization. Chemokines including MCP-1, -2 and -3 bind to several transmembrane, G-protein-linked receptors on the surface of monocytes, macrophages and microglia. Ligand binding induces signal transduction through the receptor-associated heterotrimeric G-proteins, leading to the generation of free Ca^+2 in the cytoplasm of chemokine-stimulated cells. The Ca^+2 rise is transient, and can be measured using a spectrofluorimeter. (The Cytokine Handbook) A typical readout is represented in FIG. 3, showing a positive Ca^+2 mobilization response to MCP-1 in THP-1 cells. THP-1 monocytic cells were loaded with the Ca^+2 indicator dye Indo-1AM and their cytoplasmic Ca^+2 content was measured during laser excitation. As Ca^+2 increases in the cytoplasm, the relative fluorescence intensity (RFI) of the dye increases in real time, exciting the detectors in the spectrofluorimeter. For example, after MCP-1 challenge of THP-1 cells, the RFI increases rapidly, and returns to baseline after about 60 seconds, as exemplified by the “spike” in the trace in FIG. 3 (the smaller peak before the large spike is an artifact generated by the introduction of the sample). Because the heterotrimeric G-proteins involved in the generation of the Ca^+2 signal are both rapidly dissociated and deactivated by phosphorylation, the increase in cytoplasmic Ca^+2 after ligand engagement can be desensitized. Therefore, challenging the cells a second time with MCP-1 would not result in a second spike, nor would a Ca^+2 spike result from subsequent challenge by another ligand which engages the same MCP-1 receptor
Some of the bacterial septapeptide MRHAS's (Sigma) were tested for their ability to increase cytoplasmic Ca^+2, and to desensitize subsequent Ca^+2 mobilization by MCP-1 and heterologous septapeptides. […] These included QQTAPKA (SEQ ID NO: 12) of L.monocytogenes (Figure. 4) and QVQNNKP (SEQ ID NO: 13) from H.influenzae type b (FIG. 5).

Row | Molecule | Maturation activity, % conversion ([2]; peptide 10^−6 M (1 uM)) [%] | Maturation activity, % conversion ([2]; peptide 10^−7 M (100 nM)) [%] | Ca^+2 flux [3] | DESENSITIZATION [3] | also measured
1 | CCCC(=O)Nc1ncnc2c1ncn2[C@@H]1O[C@@H]2COP(=O)(O)O[C@H]2[C@H]1OC(=O)CCC [diBcAMP, dibutyryl cyclicAMP] |  |  |  |  | cells with intracellular astrocyte-specific GFA protein [1]: 80%; cells with surface oligodendrocyte-specific galactocerebroside (GC) [1]: less than 10%
2 | FLVKAHEQFH [Peptide #3, reference compound] | <1 | <1 |  |  | 
3 | MCP-1: human Monocyte Chemoattractant Protein 1, chemokine, positive control |  |  | positive |  | Ca^+2 flux ([3]; listed as hMCP-1): positive Ca^+2 responses
4 | QQQPPKA [S. pneumoniae-derived MRHAS septapeptide] |  |  | negative; also recorded: did not induce a Ca^+2 signal | blocks activation by the Listeria-derived MRHAS; also recorded: positive for QQTAPKA | 
5 | QQTAPKA [L. monocytogenes-derived MRHAS septapeptide] |  |  | positive; also recorded: mild Ca^+2 agonists | lack of subsequent desensitization to MCP 1; also recorded: negative for MCP-1 | 
6 | QVQNNKP [H. influenzae type b-derived MRHAS septapeptide] |  |  | mild Ca^+2 agonists; also recorded: weakly positive | blocks activation by the Listeria-derived MRHAS; also recorded: positive for QQTAPKA | relative fluorescence intensity (RFI) ([3]; Ca+2 mobilization response): 2.0
7 | ^1DAEFRHDSGYEVHHQKLVF^19 [Peptide #1] | 63 | 41 |  |  | 
8 | ^13HHEQKLVFFAE^22 (HHQKLVFFAE) [Peptide #2] | 41 | 27 |  |  | Maturation activity, % conversion ([2]; peptide 10^−7 M (100 nM), listed as HHQKLVFFAE): 27%
